The target of series [1] is CYP126 (Mycobacterium tuberculosis, UniProt P9WPN9). The settings on record: fragment 1 mM, P450 4-6 µM; relative to DMSO (418 nm).
In series [2] the target is CYP125 (Mycobacterium tuberculosis, UniProt P9WPP1). It counts as binding. The settings on record: fragment 1 mM, P450 4-6 µM; Soret shift relative to DMSO (393 nm).
For series [3], the target named is CYP142 (Mycobacterium tuberculosis, UniProt P9WPL5). The settings on record: fragment 1 mM, P450 4-6 µM; relative to DMSO (418.5 nm).
In series [4] the target is CYP143 (Mycobacterium tuberculosis, UniProt P9WPL3). The settings on record: fragment 1 mM, P450 4-6 µM; relative to DMSO (416 nm).
For series [5], the target named is CYP124 (Mycobacterium tuberculosis, UniProt P9WPP3). The settings on record: fragment 1 mM, P450 4-6 µM; relative to DMSO (419 nm).
Series [6] has as its target CYP121 (Mycobacterium tuberculosis, UniProt P9WPP7). The settings on record: fragment 1 mM, P450 4-6 µM; relative to DMSO (417 nm).
The target in series [7] is CYP144 (Mycobacterium tuberculosis, UniProt P9WPL1). The settings on record: fragment 1 mM, P450 4-6 µM; relative to DMSO (421 nm).
Chain of CYP144 (P9WPL1 whole entry, the tested form may be a part): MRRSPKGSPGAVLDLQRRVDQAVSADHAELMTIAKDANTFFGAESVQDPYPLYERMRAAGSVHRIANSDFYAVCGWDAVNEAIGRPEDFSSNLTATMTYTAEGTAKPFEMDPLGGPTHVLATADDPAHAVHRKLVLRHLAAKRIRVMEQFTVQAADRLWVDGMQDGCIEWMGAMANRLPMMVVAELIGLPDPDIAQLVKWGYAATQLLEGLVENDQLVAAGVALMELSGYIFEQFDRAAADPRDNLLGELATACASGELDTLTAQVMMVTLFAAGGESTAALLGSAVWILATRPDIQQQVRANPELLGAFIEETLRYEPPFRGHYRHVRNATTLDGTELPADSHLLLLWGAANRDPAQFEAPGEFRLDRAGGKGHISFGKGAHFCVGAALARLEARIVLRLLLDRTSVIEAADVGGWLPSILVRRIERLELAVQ

Chain of CYP124 (P9WPP3 whole entry, the tested form may be a part): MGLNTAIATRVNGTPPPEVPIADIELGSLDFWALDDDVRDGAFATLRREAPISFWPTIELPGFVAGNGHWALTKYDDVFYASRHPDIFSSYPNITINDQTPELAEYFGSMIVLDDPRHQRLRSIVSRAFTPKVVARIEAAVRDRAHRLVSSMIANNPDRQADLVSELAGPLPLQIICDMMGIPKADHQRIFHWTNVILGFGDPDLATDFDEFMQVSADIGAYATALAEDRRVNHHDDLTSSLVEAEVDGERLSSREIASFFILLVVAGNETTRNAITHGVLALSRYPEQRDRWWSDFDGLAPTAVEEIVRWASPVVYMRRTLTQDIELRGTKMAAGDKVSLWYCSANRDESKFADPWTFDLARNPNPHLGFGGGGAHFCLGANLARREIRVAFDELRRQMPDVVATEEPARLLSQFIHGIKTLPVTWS
Chain of CYP142 (P9WPL5 whole entry, the tested form may be a part): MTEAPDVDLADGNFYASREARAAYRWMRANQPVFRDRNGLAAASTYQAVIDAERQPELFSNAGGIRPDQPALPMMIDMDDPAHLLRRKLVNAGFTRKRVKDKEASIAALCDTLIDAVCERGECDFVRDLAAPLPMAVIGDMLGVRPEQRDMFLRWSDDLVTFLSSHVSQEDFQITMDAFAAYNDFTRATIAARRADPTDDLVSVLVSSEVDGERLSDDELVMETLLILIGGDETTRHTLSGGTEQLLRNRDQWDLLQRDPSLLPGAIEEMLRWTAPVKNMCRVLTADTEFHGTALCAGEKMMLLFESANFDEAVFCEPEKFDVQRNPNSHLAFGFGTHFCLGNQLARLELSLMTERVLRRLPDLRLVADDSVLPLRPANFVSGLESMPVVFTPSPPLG
Chain of CYP121 (P9WPP7 whole entry, the tested form may be a part): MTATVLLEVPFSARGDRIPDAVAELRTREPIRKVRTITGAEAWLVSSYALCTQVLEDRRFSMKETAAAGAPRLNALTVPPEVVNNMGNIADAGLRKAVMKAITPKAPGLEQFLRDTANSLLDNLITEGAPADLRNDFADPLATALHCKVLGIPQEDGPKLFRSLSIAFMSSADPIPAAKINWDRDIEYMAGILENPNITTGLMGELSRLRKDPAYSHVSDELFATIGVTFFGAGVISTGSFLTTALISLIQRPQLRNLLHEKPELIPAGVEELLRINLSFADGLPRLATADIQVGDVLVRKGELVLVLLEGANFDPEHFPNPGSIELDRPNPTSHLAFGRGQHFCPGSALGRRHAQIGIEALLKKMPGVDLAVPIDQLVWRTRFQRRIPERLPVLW
Chain of CYP143 (P9WPL3 whole entry, the tested form may be a part): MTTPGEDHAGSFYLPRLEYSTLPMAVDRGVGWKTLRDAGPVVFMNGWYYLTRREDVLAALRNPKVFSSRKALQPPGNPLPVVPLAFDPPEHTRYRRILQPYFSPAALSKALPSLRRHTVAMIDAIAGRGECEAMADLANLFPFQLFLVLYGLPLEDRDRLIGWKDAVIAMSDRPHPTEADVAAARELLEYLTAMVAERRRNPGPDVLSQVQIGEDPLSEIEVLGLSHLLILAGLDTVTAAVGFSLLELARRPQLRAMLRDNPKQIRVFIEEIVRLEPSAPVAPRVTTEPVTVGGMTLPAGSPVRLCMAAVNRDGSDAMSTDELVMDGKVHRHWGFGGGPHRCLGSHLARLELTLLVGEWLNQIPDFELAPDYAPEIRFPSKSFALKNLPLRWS
Chain of CYP126 (P9WPN9 whole entry, the tested form may be a part): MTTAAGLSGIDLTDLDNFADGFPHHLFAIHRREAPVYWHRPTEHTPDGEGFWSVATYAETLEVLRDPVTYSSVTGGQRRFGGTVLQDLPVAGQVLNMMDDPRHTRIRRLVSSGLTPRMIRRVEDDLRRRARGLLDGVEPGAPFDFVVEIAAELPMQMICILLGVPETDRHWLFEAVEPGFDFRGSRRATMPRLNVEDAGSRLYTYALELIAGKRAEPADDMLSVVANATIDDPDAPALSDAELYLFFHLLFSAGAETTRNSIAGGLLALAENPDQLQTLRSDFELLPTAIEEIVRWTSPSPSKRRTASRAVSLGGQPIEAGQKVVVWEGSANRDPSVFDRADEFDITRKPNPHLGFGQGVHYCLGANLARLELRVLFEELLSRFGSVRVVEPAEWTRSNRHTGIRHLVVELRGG
Chain of CYP125 (P9WPP1 whole entry, the tested form may be a part): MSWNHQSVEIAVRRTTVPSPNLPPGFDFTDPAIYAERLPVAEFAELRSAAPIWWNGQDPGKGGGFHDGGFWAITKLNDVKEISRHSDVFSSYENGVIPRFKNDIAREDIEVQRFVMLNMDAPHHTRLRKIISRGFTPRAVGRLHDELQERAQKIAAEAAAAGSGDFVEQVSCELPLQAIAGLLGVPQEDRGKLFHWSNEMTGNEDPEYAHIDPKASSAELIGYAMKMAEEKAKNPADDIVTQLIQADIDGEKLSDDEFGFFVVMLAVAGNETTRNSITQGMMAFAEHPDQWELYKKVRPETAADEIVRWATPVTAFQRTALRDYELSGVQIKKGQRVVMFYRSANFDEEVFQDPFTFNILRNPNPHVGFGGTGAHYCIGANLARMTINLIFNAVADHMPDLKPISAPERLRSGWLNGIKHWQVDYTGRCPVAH

For the compound `c1ccc2c(c1)CCNC2` [compound 39], in series [1], the “Δλmax (nm) CYP126, fragment screen” value is listed as 0 nm. Further, the “Δλmax (nm) CYP125, fragment screen” value in series [2] amounted to 0 nm. In series [3], the “Δλmax (nm) CYP142, fragment screen” value is 1.5 nm. The “Δλmax (nm) CYP143, fragment screen” value in series [4] came to 1 nm. For the same compound, in series [5], the “Δλmax (nm) CYP124, fragment screen” value is reported as 2 nm. In addition, the “Δλmax (nm) CYP121, fragment screen” value in series [6] is reported as 0 nm. In series [7], the “Δλmax (nm) CYP144, fragment screen” value is 0 nm.

`c1ccc(-c2c[nH]cn2)cc1` [compound 68]: in series [1], the “Δλmax (nm) CYP126, fragment screen” value is 1 nm. Also, in series [2], the “Δλmax (nm) CYP125, fragment screen” value stood at 0 nm. For the same compound, in series [3], the “Δλmax (nm) CYP142, fragment screen” value is recorded as 3 nm. The “Δλmax (nm) CYP143, fragment screen” value in series [4] turned out to be 2 nm. Also, the “Δλmax (nm) CYP124, fragment screen” value in series [5] is listed as 4 nm. For the same compound, in series [6], the “Δλmax (nm) CYP121, fragment screen” value is given as 0 nm. Moreover, the “Δλmax (nm) CYP144, fragment screen” value in series [7] came out at 0 nm.

For `Brc1c[nH]cn1` [compound 77], the “Δλmax (nm) CYP126, fragment screen” value in series [1] is on record as 0 nm. The “Δλmax (nm) CYP125, fragment screen” value in series [2] amounted to 0 nm. Moreover, the “Δλmax (nm) CYP142, fragment screen” value in series [3] was determined as 3 nm. Further, the “Δλmax (nm) CYP143, fragment screen” value in series [4] turned out to be 0.5 nm. Also, the “Δλmax (nm) CYP124, fragment screen” value in series [5] is on record as 0 nm. For the same compound, in series [6], the “Δλmax (nm) CYP121, fragment screen” value was -1 nm. Moreover, the “Δλmax (nm) CYP144, fragment screen” value in series [7] is listed as 0 nm.

For the compound `Nc1ccncc1` [compound 47], in series [1], the “Δλmax (nm) CYP126, fragment screen” value was found to be 0 nm. Moreover, the “Δλmax (nm) CYP125, fragment screen” value in series [2] was determined as 0 nm. Further, in series [3], the “Δλmax (nm) CYP142, fragment screen” value amounted to 1.5 nm. Moreover, the “Δλmax (nm) CYP143, fragment screen” value in series [4] was found to be 0 nm. Further, the “Δλmax (nm) CYP124, fragment screen” value in series [5] is on record as 0 nm. Also, the “Δλmax (nm) CYP121, fragment screen” value in series [6] is 0 nm. Moreover, the “Δλmax (nm) CYP144, fragment screen” value in series [7] came to 0 nm.

For the compound `COc1ncccc1N` [compound 50], in series [1], the “Δλmax (nm) CYP126, fragment screen” value is 0 nm. Also, the “Δλmax (nm) CYP125, fragment screen” value in series [2] stood at 0 nm. Moreover, in series [3], the “Δλmax (nm) CYP142, fragment screen” value was 0 nm. Also, the “Δλmax (nm) CYP143, fragment screen” value in series [4] is reported as 2.5 nm. In series [5], the “Δλmax (nm) CYP124, fragment screen” value is 0 nm. Besides, the “Δλmax (nm) CYP121, fragment screen” value in series [6] worked out at 0 nm. In series [7], the “Δλmax (nm) CYP144, fragment screen” value was 0 nm.

With `O=C(O)c1cccc(O)n1` [compound 30], the “Δλmax (nm) CYP126, fragment screen” value in series [1] stood at 0 nm. For the same compound, the “Δλmax (nm) CYP125, fragment screen” value in series [2] turned out to be 0 nm. The “Δλmax (nm) CYP142, fragment screen” value in series [3] came out at 0 nm. Moreover, in series [4], the “Δλmax (nm) CYP143, fragment screen” value stood at 1 nm. Besides, the “Δλmax (nm) CYP124, fragment screen” value in series [5] was determined as 0 nm. Further, in series [6], the “Δλmax (nm) CYP121, fragment screen” value amounted to 0 nm. In series [7], the “Δλmax (nm) CYP144, fragment screen” value came out at 0 nm.

For `OCc1ccc(Cn2cncn2)cc1` [compound 69], in series [1], the “Δλmax (nm) CYP126, fragment screen” value was 0 nm. In addition, in series [2], the “Δλmax (nm) CYP125, fragment screen” value turned out to be 0 nm. Further, the “Δλmax (nm) CYP142, fragment screen” value in series [3] worked out at 0 nm. The “Δλmax (nm) CYP143, fragment screen” value in series [4] is 0 nm. Also, the “Δλmax (nm) CYP124, fragment screen” value in series [5] worked out at 0 nm. For the same compound, in series [6], the “Δλmax (nm) CYP121, fragment screen” value is reported as 0 nm. Further, in series [7], the “Δλmax (nm) CYP144, fragment screen” value was 0 nm.

For `c1ccc(-c2cc[nH]n2)cc1` [compound 35], in series [1], the “Δλmax (nm) CYP126, fragment screen” value worked out at 0 nm. In series [2], the “Δλmax (nm) CYP125, fragment screen” value was -2 nm. The “Δλmax (nm) CYP142, fragment screen” value in series [3] stood at 0 nm. Also, the “Δλmax (nm) CYP143, fragment screen” value in series [4] was 1 nm. Besides, the “Δλmax (nm) CYP124, fragment screen” value in series [5] is on record as -1 nm. In series [6], the “Δλmax (nm) CYP121, fragment screen” value stood at 0 nm. Besides, the “Δλmax (nm) CYP144, fragment screen” value in series [7] was 0 nm.

As for `O=C(O)c1cccc(-c2cccnc2)c1` [compound 74], in series [1], the “Δλmax (nm) CYP126, fragment screen” value is on record as 0 nm. Besides, in series [2], the “Δλmax (nm) CYP125, fragment screen” value is recorded as 0 nm. Moreover, in series [3], the “Δλmax (nm) CYP142, fragment screen” value is on record as 0 nm. Moreover, the “Δλmax (nm) CYP143, fragment screen” value in series [4] came out at 1 nm. Further, the “Δλmax (nm) CYP124, fragment screen” value in series [5] came to 0 nm. The “Δλmax (nm) CYP121, fragment screen” value in series [6] is 0 nm. Further, the “Δλmax (nm) CYP144, fragment screen” value in series [7] is recorded as 0 nm.

For the compound `O=C(O)c1ccc(-n2cccn2)cc1` [compound 54], the “Δλmax (nm) CYP126, fragment screen” value in series [1] is -1 nm. Besides, the “Δλmax (nm) CYP125, fragment screen” value in series [2] worked out at 0 nm. Further, the “Δλmax (nm) CYP142, fragment screen” value in series [3] stood at 0 nm. Further, in series [4], the “Δλmax (nm) CYP143, fragment screen” value is -0.5 nm. Moreover, in series [5], the “Δλmax (nm) CYP124, fragment screen” value stood at 0 nm. Further, the “Δλmax (nm) CYP121, fragment screen” value in series [6] is 0 nm. Besides, in series [7], the “Δλmax (nm) CYP144, fragment screen” value is 0 nm.

As for `O=C(O)[C@@H]1Cc2ccccc2CN1` [compound 79], the “Δλmax (nm) CYP126, fragment screen” value in series [1] is 0 nm. The “Δλmax (nm) CYP125, fragment screen” value in series [2] is given as -2 nm. In addition, the “Δλmax (nm) CYP142, fragment screen” value in series [3] was found to be 0 nm. Also, the “Δλmax (nm) CYP143, fragment screen” value in series [4] was 0 nm. Further, in series [5], the “Δλmax (nm) CYP124, fragment screen” value is given as 0 nm. In addition, in series [6], the “Δλmax (nm) CYP121, fragment screen” value worked out at 1 nm. Further, the “Δλmax (nm) CYP144, fragment screen” value in series [7] amounted to 0 nm.

Take `NC1=NN(c2ccccc2)C(=O)C1` [compound 13]: the “Δλmax (nm) CYP126, fragment screen” value in series [1] is 0 nm. Moreover, in series [2], the “Δλmax (nm) CYP125, fragment screen” value amounted to 0 nm. For the same compound, the “Δλmax (nm) CYP142, fragment screen” value in series [3] turned out to be 0 nm. Further, in series [4], the “Δλmax (nm) CYP143, fragment screen” value stood at 0 nm. Besides, in series [5], the “Δλmax (nm) CYP124, fragment screen” value was -1 nm. The “Δλmax (nm) CYP121, fragment screen” value in series [6] turned out to be 0 nm. For the same compound, the “Δλmax (nm) CYP144, fragment screen” value in series [7] came to 0 nm.

Regarding `O=C1CCN(c2ccccc2)N1` [compound 64], the “Δλmax (nm) CYP126, fragment screen” value in series [1] was determined as 0 nm. Besides, the “Δλmax (nm) CYP125, fragment screen” value in series [2] stood at 0 nm. The “Δλmax (nm) CYP142, fragment screen” value in series [3] came out at 1.5 nm. Also, in series [4], the “Δλmax (nm) CYP143, fragment screen” value is given as 1 nm. In addition, the “Δλmax (nm) CYP124, fragment screen” value in series [5] is reported as -1 nm. Further, the “Δλmax (nm) CYP121, fragment screen” value in series [6] was 0 nm. The “Δλmax (nm) CYP144, fragment screen” value in series [7] came out at 0 nm.

For the compound `Nc1cc(Cl)nc(Cl)c1` [compound 28], the “Δλmax (nm) CYP126, fragment screen” value in series [1] was 0 nm. Further, the “Δλmax (nm) CYP125, fragment screen” value in series [2] came out at 0 nm. Also, the “Δλmax (nm) CYP142, fragment screen” value in series [3] worked out at 0 nm. Besides, the “Δλmax (nm) CYP143, fragment screen” value in series [4] came out at 0 nm. Further, the “Δλmax (nm) CYP124, fragment screen” value in series [5] was 0 nm. Besides, the “Δλmax (nm) CYP121, fragment screen” value in series [6] is recorded as 0 nm. For the same compound, in series [7], the “Δλmax (nm) CYP144, fragment screen” value is listed as 0 nm.

As to `Cn1nc(-c2ccccc2)cc1N` [compound 11], the “Δλmax (nm) CYP126, fragment screen” value in series [1] was found to be 0 nm. Moreover, the “Δλmax (nm) CYP125, fragment screen” value in series [2] is given as 0 nm. For the same compound, the “Δλmax (nm) CYP142, fragment screen” value in series [3] turned out to be 0 nm. For the same compound, the “Δλmax (nm) CYP143, fragment screen” value in series [4] is reported as -0.5 nm. Further, the “Δλmax (nm) CYP124, fragment screen” value in series [5] is 0 nm. Also, the “Δλmax (nm) CYP121, fragment screen” value in series [6] was determined as 0 nm. In addition, the “Δλmax (nm) CYP144, fragment screen” value in series [7] is on record as 0 nm.

With `O=C(O)c1ccnnc1` [compound 1], the “Δλmax (nm) CYP126, fragment screen” value in series [1] was 0 nm. Besides, in series [2], the “Δλmax (nm) CYP125, fragment screen” value was found to be 0 nm. Also, the “Δλmax (nm) CYP142, fragment screen” value in series [3] worked out at 0 nm. The “Δλmax (nm) CYP143, fragment screen” value in series [4] is reported as 0.5 nm. For the same compound, the “Δλmax (nm) CYP124, fragment screen” value in series [5] is given as 0 nm. Further, the “Δλmax (nm) CYP121, fragment screen” value in series [6] was -1 nm. The “Δλmax (nm) CYP144, fragment screen” value in series [7] was 0 nm.

Take `Cc1nn(-c2ccccc2)nc1C(=O)O` [compound 18]: in series [1], the “Δλmax (nm) CYP126, fragment screen” value is on record as 0 nm. The “Δλmax (nm) CYP125, fragment screen” value in series [2] stood at 0 nm. The “Δλmax (nm) CYP142, fragment screen” value in series [3] worked out at 0 nm. Besides, the “Δλmax (nm) CYP143, fragment screen” value in series [4] is 0 nm. Moreover, the “Δλmax (nm) CYP124, fragment screen” value in series [5] came to 0 nm. In addition, the “Δλmax (nm) CYP121, fragment screen” value in series [6] was 0 nm. For the same compound, the “Δλmax (nm) CYP144, fragment screen” value in series [7] was 0 nm.

Source of the values: publication PMC12305662, “Fragment-Based Development of Small Molecule Inhibitors Targeting Mycobacterium tuberculosis Cholesterol Metabolism” (Journal of Medicinal Chemistry, 2025).
